Patent publication US20110086848A1, “Agrochemical Compositions Comprising Alkyl Polypropylene Glycol Polyethylene Glycol” (Bayer CropScience AG, priority 2009, published 2011)
Like-named read-outs stand apart in the source and are kept apart here.

Test: physchem
Assay type: physicochemical
Description: In the context of the present invention, the term “water-soluble agrochemically active compound” is generally understood as meaning an insecticidally and/or acaricidally active compound (i.e. an active compound that controls insects and/or Acarina) which has (at 20° C.) a solubility of ≧10 mg/l in water. Compounds A and B meet this requirement.

| solubility (at 20° C., stated as meeting the definition of water-soluble, read-out: solubility in water) [µg/mL] | Structure (SMILES) | solubility (20 °C, water) [µg/mL] |
| --- | --- | --- |
| ≥ 10 | C/C(=N\C#N)N(Cc1ccc(Cl)nc1)CC(F)F [Compound A] |  |
|  | O=C1C=C(N(Cc2ccc(Cl)nc2)CC(F)F)CO1 [Compound B] | ≥ 10 |
